Converted amounts (≈) assume the structure as drawn.
Legend:
Caco-2 cell line = assay: Caco-2 permeability; settings: human, Caco-2, 2 h, 5 μM, pH 7.4
Experimental: (§2) The Caco-2 permeability studies were performed as follows. (i) For the preparation of Caco cells, 50-μl and 25-ml volumes of cell culture medium were added to each well of the Transwell insert and reservoir, respectively. The HTS Transwell plates then were incubated at 37°C, 5% CO2 for 1 h before cell seeding. […] (ii) For the preparation of stock solutions, 10 mM stock solutions of test compounds were prepared in DMSO. The stock solutions of positive controls were prepared in DMSO at a concentration of 10 mM. Digoxin and propranolol were used as control compounds in this assay. (iii) For the assessment of cell monolayer integrity, medium was removed from the reservoir and each Transwell insert and replaced with prewarmed fresh culture medium. Transepithelial electrical resistance (TEER) across the monolayer was measured using a Millicell epithelial volt-Ohm measuring system (Millipore, USA). The plate was returned to the incubator once the measurement was done. The TEER value was calculated according to the following equation: TEER measurement (ohms) × area of membrane (cm^2) = TEER value (ohm · cm^2). The TEER value should be greater than 230 Ω · cm^2, which indicates a well-qualified Caco-2 monolayer. (iv) The assay was performed as follows. The Caco-2 plate was removed from the incubator and washed twice with prewarmed Hanks' balanced salt solution (HBSS; with 10 mM HEPES, pH 7.4) and then incubated at 37°C for 30 min. The stock solutions of control compounds were diluted in DMSO to get 1 mM solutions and then diluted with HBSS (10 mM HEPES, pH 7.4) to get 5 μM working solutions. The stock solutions of the test compounds were diluted in DMSO to get 1 mM solutions and then diluted with HBSS (10 mM HEPES, pH 7.4) to get 5 μM working solutions. The final concentration of DMSO in the incubation system was 0.5%. To determine the rate of drug transport in the apical to basolateral direction, 75 μl of 5 μM working solution of test compound was added to the Transwell insert (apical compartment), and the wells in the receiver plate (basolateral compartment) were filled with 235 μl of HBSS (10 mM HEPES, pH 7.4). To determine the rate of drug transport in the basolateral to apical direction, 235 μl of 5 μM working solution of test compound was added to the receiver plate wells (basolateral compartment), and then the Transwell inserts (apical compartment) were filled with 75 μl of HBSS (10 mM HEPES, pH 7.4). Time zero samples were prepared by transferring 50 μl of 5 μM working solution to wells of the 96-deep-well plate, followed by the addition of 200 μl cold acetonitrile or methanol containing appropriate IS. The plates were incubated at 37°C for 2 h. At the end of the incubation, 50-μl samples from donor sides (apical compartment for AP→BL flux and basolateral compartment for BL→AP) and receiver sides (basolateral compartment for AP→BL flux and apical compartment for BL→AP) were transferred to wells of a new 96-well plate, followed by the addition of 4 volumes of cold acetonitrile or methanol containing appropriate IS. […] An aliquot of 100 μl of the supernatant was mixed with an appropriate volume of ultrapure water before LC-MS/MS analysis. To determine the Lucifer yellow leakage after a 2-h transport period, a stock solution of Lucifer yellow was prepared in ultrapure water and diluted with HBSS (10 mM HEPES, pH 7.4) to reach a final concentration of 100 μM. One hundred microliters of the Lucifer yellow solution was added to each Transwell insert (apical compartment), followed by filling the wells in the receiver plate (basolateral compartment) with 300 μl of HBSS (10 mM HEPES, pH 7.4). The plates were incubated at 37°C for 30 min, and 80-μl samples were removed directly from the apical and basolateral wells (using the basolateral access holes) and transferred to wells of new 96-well plates.

Caco-2 permeability = settings: human; for Papp A→B at 2 h, 5 μM / Papp B→A at 2 h, 5 μM: Caco-2, pH 7.4
Experimental: as §2

J774 = assay: In vitro toxicity (MTT), J774; type: cell-based, murine; settings: Mus musculus, cytotoxicity
Experimental: (§1) The murine macrophage cell line J774 and human cancer cell lines A549 and HepG2 were maintained in DMEM containing 10% fetal bovine serum (FBS) and 1% penicillin-streptomycin. At passage 7, 10^5 cells/well in DMEM containing 10% FBS were transferred into 96-well plates and cultured for 14 h for the cells to adhere to the wells. The compounds were added to the cells at concentrations ranging from 0.03 to 128 μg/ml. The wells without the compound served as controls. […] After 24 or 48 h, the supernatant was removed and 50 μl of 5-mg/ml 3-(4,5-dimethylthiazol-2-yl)-2,5-diphenyltetrazoliumbromide (MTT) solution in phosphate-buffered saline (PBS) was added to each well. The plates were incubated for an additional 4 h. The formazan crystal formed inside the cell was dissolved by adding 50 μl of dimethyl sulfoxide (DMSO). The optical density was measured at 570 nm.

in vitro [1] = settings: mouse, microsomes; for remaining at 0 h, 2 μM: % remaining at 0 min; for remaining at 0.25 h, 2 μM: % remaining at 15 min; for remaining at 0.5 h, 2 μM: % remaining at 30 min; for remaining at 0.75 h, 2 μM: % remaining at 45 min; for remaining at 1 h, 2 μM: % remaining at 60 min
Experimental: (§3) To test for metabolic stability, 40 μl of 10 mM NADPH solution was added to each well of a 96-well plate. The final concentration of NADPH was 1 mM. The mixture was prewarmed at 37°C for 5 min. The negative-control samples were prepared by replacing NADPH solutions with 40 μl of ultrapure H2O. The negative control was used to exclude the misleading factor that resulted from the instability of the chemical itself. Samples with NADPH were prepared in duplicate. Negative controls were prepared in singlet. The reaction was started with the addition of 4 μl of 200 μM control compound or test compound solutions. […] An aliquot of 90 μl of the supernatant was mixed with 90 μl of ultrapure H2O and then used for LC-MS/MS analysis.

C. albicans = assay: Mouse model of invasive candidiasis; type: in vivo, mice; settings: oral gavage 20 mg/kg/day, i.v. infection with 10^4 cells of C. albicans, after 21 days
C. neoformans = assay: In vitro killing assay; settings: minimum concentration that kills 100% of C. neoformans cells in 48 h
Experimental: C. neoformans cells from a culture grown overnight were washed in PBS and resuspended in YNB buffered with HEPES at pH 7.4. The cells were counted, and 2 × 10^4 cells were incubated with different concentrations of the drugs in a final volume of 10 ml with a final concentration of 0.5% DMSO. The tubes were then incubated at 37°C with 5% CO2 on a rotary shaker at 200 rpm. Aliquots were taken at the time points indicated and diluted, and 100-µl portions were plated onto YPD plates.

Aspergillus fumigatus = assay: Mouse model of invasive pulmonary aspergillosis; type: in vivo, mice; settings: oral 20 mg/kg/day; for lung fungal burden (CFU) of surviving mice: at the endpoint, data not shown; for mice that survived: immunosuppressed mice, after 15 days
Experimental: For survival study, 8-week-old CBA/J (Envigo) male mice were used. They were divided into sets of 10 mice for each treatment or control group. The day prior to infection, the mice were immunosuppressed by using triamcinolone acetonide (1 mg/mouse) subcutaneously ([40]). On day 0, mice were infected intranasally with 20 μl of a suspension containing 2 × 10^4 conidia of A. fumigatus strain Af293 and were treated through gavage with 20 mg/kg/day of BHBM, D13, or voriconazole (as a drug control) in a final volume of 100 μl of 30% PEG in saline buffer. The untreated control group mice received 100 μl of 30% PEG in saline buffer. Mice were fed ad libitum and were given 50% grapefruit juice in place of normal drinking water to avoid the liver metabolism of the drugs ([41]). Mice were monitored every day for discomfort and sacrificed subsequently.

[2] = molecular target: human ether-a-go-go-related gene (hERG) potassium channel (Homo sapiens, UniProt Q12809); assay: hERG patch clamp assay; type: cell-based
Chain of human ether-a-go-go-related gene (hERG) potassium channel (Q12809 whole entry): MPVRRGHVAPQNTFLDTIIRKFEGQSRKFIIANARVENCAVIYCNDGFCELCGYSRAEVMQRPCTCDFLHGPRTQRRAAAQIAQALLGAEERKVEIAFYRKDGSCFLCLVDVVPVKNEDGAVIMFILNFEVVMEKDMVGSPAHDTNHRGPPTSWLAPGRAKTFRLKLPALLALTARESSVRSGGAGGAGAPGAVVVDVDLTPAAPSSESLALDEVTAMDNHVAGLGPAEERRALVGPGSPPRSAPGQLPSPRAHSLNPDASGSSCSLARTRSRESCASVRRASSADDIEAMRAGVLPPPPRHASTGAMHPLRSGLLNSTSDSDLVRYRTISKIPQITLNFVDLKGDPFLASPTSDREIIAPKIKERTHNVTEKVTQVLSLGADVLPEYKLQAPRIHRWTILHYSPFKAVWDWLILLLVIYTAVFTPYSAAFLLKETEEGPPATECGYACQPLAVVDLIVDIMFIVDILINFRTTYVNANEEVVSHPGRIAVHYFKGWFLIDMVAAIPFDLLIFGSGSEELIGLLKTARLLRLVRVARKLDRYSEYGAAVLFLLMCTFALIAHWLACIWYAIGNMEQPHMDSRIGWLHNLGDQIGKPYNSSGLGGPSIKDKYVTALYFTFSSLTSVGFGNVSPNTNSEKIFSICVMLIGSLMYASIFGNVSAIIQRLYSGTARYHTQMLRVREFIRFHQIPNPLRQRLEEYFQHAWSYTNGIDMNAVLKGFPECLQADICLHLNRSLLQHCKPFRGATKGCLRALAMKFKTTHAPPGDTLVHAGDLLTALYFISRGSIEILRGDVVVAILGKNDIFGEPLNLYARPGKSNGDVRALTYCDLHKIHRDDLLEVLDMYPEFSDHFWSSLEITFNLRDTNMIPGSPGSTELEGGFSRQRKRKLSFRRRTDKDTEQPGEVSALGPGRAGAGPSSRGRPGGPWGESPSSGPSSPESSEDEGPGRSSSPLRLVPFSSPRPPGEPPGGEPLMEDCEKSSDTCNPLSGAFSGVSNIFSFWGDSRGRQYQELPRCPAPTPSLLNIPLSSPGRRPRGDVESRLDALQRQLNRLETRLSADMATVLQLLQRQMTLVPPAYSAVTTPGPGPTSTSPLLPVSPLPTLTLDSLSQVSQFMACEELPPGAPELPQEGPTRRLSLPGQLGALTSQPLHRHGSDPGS

A549 = assay: In vitro toxicity (MTT), A549; type: cell-based; settings: Homo sapiens, cytotoxicity
Experimental: as §1

in vitro [3] = settings: human, microsomes; for remaining at 0 h, 2 μM: % remaining at 0 min; for remaining at 0.25 h, 2 μM: % remaining at 15 min; for remaining at 0.5 h, 2 μM: % remaining at 30 min; for remaining at 0.75 h, 2 μM: % remaining at 45 min; for remaining at 1 h, 2 μM: % remaining at 60 min
Experimental: as §3

in vitro [4] = settings: monkey
Description: A commercially available kit was used to examine permeability through the blood-brain barrier (BBB kit MBT-24; Pharmaco Cell Co. Ltd.). This kit allows us to perform a permeability assay using an in vitro reproduction of the blood-brain barrier using monkey brain. Briefly, in a 12-well plate there is a triple culture, with endothelial cells in the luminal part and perycites and astrocytes in the abluminal side connected by tight junctions. The luminal side of the well represents the blood side, whereas the abluminal side represents the brain side. The integrity of the blood-brain barrier is assessed by the measurement of TEER, which indicates the formation of tight junctions. To have an efficient system, the TEER should be >150 Ω cm^2. The kit is kept frozen at −80°C until it is ready to use. […] After that it takes 3 days for the cells to adjust, and then the plate can be used in 4 days for the experiment. For drug testing, after assessing the TEER, the drugs were added in the chosen medium at the desired concentrations and at different time points. At the end of each time point the TEER was measured to assess if the BBB was still intact. After that the medium was collected and subjected to MS to measure the concentration of the samples in the brain side and calculate the permeability value (Papp).

SMILES	Papp A→B at 2 h, 5 μM (Caco-2 permeability) [×10⁻⁶ cm/s]	Papp B→A at 2 h, 5 μM (Caco-2 permeability) [×10⁻⁶ cm/s]	recovery at 2 h, 5 μM (Caco-2 permeability; Caco-2, pH 7.4, Recovery AP→BL) [%]	recovery at 2 h, 5 μM (Caco-2 permeability; Caco-2, pH 7.4, Recovery BL→AP) [%]	IC50 (J774) [µg/mL]	half-life at 2 μM (in vitro [1]) [h]	microsomal CLint at 2 μM (in vitro [1]) [µL/min/mg]	remaining at 0 h, 2 μM (in vitro [1]; with NADPH) [%]	remaining at 0 h, 2 μM (in vitro [1]; without NADPH) [%]	remaining at 0.25 h, 2 μM (in vitro [1]; with NADPH) [%]	remaining at 0.25 h, 2 μM (in vitro [1]; without NADPH) [%]	remaining at 0.5 h, 2 μM (in vitro [1]; with NADPH) [%]	remaining at 0.5 h, 2 μM (in vitro [1]; without NADPH) [%]	remaining at 0.75 h, 2 μM (in vitro [1]; with NADPH) [%]	remaining at 0.75 h, 2 μM (in vitro [1]; without NADPH) [%]	remaining at 1 h, 2 μM (in vitro [1]; without NADPH) [%]	mice that survived (C. albicans) [%]	K100* (C. neoformans) [µg/mL]	lung fungal burden (CFU) of surviving mice (Aspergillus fumigatus)	mice that survived (Aspergillus fumigatus) [%]	also measured
Cc1ccccc1C(=O)N/N=C/c1cc(Br)ccc1O [BHBM, (E)-N′-(3-bromo-6-hydroxybenzylidene)-2-methylbenzohydrazide]	14.3	4.71	~40	~40	16 (≈ 48 µM)	0.122	189	100	100	25.3	109	4.93	89.9	1.52	86.3	84.1	20	>1	showed evidence of colonies	30	Recovery AP→BL (Caco-2 cell line): 41.88%; Recovery BL→AP (Caco-2 cell line): 39.05%; IC50 [2]: 11.5 µM; IC50 (A549): 32 µg/mL (≈ 96 µM); half-life at 2 μM (in vitro [3]): 0.814 h; microsomal CLint at 2 μM (in vitro [3]): 28.4 µL/min/mg; remaining at 0 h, 2 μM (in vitro [3]; with NADPH): 100%; remaining at 0 h, 2 μM (in vitro [3]; without NADPH): 100%; remaining at 0.25 h, 2 μM (in vitro [3]; with NADPH): 83.2%; remaining at 0.25 h, 2 μM (in vitro [3]; without NADPH): 101%; remaining at 0.5 h, 2 μM (in vitro [3]; with NADPH): 62.5%; remaining at 0.5 h, 2 μM (in vitro [3]; without NADPH): 88.5%; remaining at 0.75 h, 2 μM (in vitro [3]; with NADPH): 51.3%; remaining at 0.75 h, 2 μM (in vitro [3]; without NADPH): 81.2%; remaining at 1 h, 2 μM (in vitro [3]; without NADPH): 82.7%; Papp at 5 min (in vitro [4]): 22 ×10⁻⁶ cm/s; Papp at 15 min (in vitro [4]): 9 ×10⁻⁶ cm/s; Papp at 30 min (in vitro [4]): 9 ×10⁻⁶ cm/s
O=C(N/N=C/c1cc(Br)cc(Br)c1O)c1ccc(Br)cc1 [D13]	0.13	< 1	49.8	107	16 (≈ 33.5 µM)	1.48	15.7	100	100	80.8	90.7	69.3	88.1	64.6	82.8	80.8	20	0.5	only one D13-treated mouse showed evidence of colonies	80	Efflux ratio (Caco-2 cell line): 1.74; efflux ratio at 2 h, 5 μM (Caco-2 permeability; Caco-2, pH 7.4, Efflux ratio): < 2; remaining at 1 h, 2 μM (in vitro [1]; with NADPH): ~60%; IC50 [2]: > 30 µM; IC50 (A549): > 128 µg/mL; half-life at 2 μM (in vitro [3]): 1.72 h; microsomal CLint at 2 μM (in vitro [3]): 13.4 µL/min/mg; remaining at 0 h, 2 μM (in vitro [3]; with NADPH): 100%; remaining at 0 h, 2 μM (in vitro [3]; without NADPH): 100%; remaining at 0.25 h, 2 μM (in vitro [3]; with NADPH): 83.9%; remaining at 0.25 h, 2 μM (in vitro [3]; without NADPH): 96.5%; remaining at 0.5 h, 2 μM (in vitro [3]; with NADPH): 73%; remaining at 0.5 h, 2 μM (in vitro [3]; without NADPH): 86.5%; remaining at 0.75 h, 2 μM (in vitro [3]; with NADPH): 73.1%; remaining at 0.75 h, 2 μM (in vitro [3]; without NADPH): 81.9%; remaining at 1 h, 2 μM (in vitro [3]; with NADPH): ~60%; remaining at 1 h, 2 μM (in vitro [3]; without NADPH): 88.9%; Papp at 5 min (in vitro [4]): 6.8 ×10⁻⁶ cm/s; Papp at 15 min (in vitro [4]): 2.2 ×10⁻⁶ cm/s; Papp at 30 min (in vitro [4]): 1.1 ×10⁻⁶ cm/s
